According to patent US20050267050A1, “Compositions and methods for treating mdma-induced toxicity” (YEDA RESEARCH AND DEVELOPMENT CO. LTD., priority 2002, published 2005):

Test system: MDMA acute toxicity in mice
Assay: Protective activity against MDMA acute toxicity (survival) in mice
Assay type: in vivo, C57B1/6J mice
Details: inhibitor i.p. 5-120 minutes before toxic dose of MDMA; FIG. 6A
Description: Next step was to determine whether compounds blocking the enhanced expression of GABA transporters may restraint MDMA-induced hyperthermia. We ran trials to determine whether the mortality levels causes by MDMA administration would be affected by treatment with suspected GABA transporter inhibiting compounds Tiagabine, nipecotic acid derivative NO-711, and Vigabatrin which have been used hitherto as anti-epileptics.
Mice were administered dose(s) of mg/ml of MDMA according to the following schedule and were […] injected with a dose of the GABA transporter blocker. In the first set of experiments the effective toxic dose of MDMA was determined. C57B1/6J mice, 2-3 months old, 6 mice in each group, were tested with different concentration of the drug, prepared in saline and injected intraperitoneally. Saline solution was used as a control. The lowest concentration of the drug causing 100% death within 60 minutes was used in the following experiments. Mice (8 in each group) were injected (i.p.) with different concentrations of the tested GABA transporter inhibitor, or other compound, and 5-120 minutes later were injected with the toxic dose of MDMA. […]

| SMILES | Survival of MDMA-treated mice |
| --- | --- |
| Cl.O=C(O)C1=CCCN(CCON=C(c2ccccc2)c2ccccc2)C1 [NO-711, 1-(2(((diphenylmethylene)imino)oxy)ethyl)-1,2,5,6-tetrahydro-3-pyridinecarboxylic acid hydrochloride] | significantly improved the survival |
| Cc1ccsc1C(=CCCN1CCC[C@@H](C(=O)O)C1)c1sccc1C [Tiagabine, (R)-1-[4,4-Bis(3-methyl-2-thienyl)-3-butenyl]-3-piperidinecarboxylic acid] | significantly improved the survival |
